From ChEMBL document CHEMBL1156251, “Structure--activity relationships of polymyxin antibiotics” (J Med Chem, 2010)
Converted amounts (≈) assume the structure as drawn.

Columns and labels:
[1] = tested on: Escherichia coli; test: Antimicrobial activity against Escherichia coli; format: functional
[2] = tested on: Klebsiella pneumoniae; test: Antimicrobial activity against Klebsiella pneumoniae; format: functional

SMILES	MIC [1]	MIC [2]
CCC(C)CCCCC(=O)N[C@@H](CCNCc1ccc(O)c(OC)c1)C(=O)N[C@@H](C(=O)N[C@@H](CCN)C(=O)N[C@H]1CCNC(=O)[C@@H]([C@@H](C)O)NC(=O)[C@H](CCNCc2ccc(O)c(O)c2)NC(=O)[C@H](CCNCc2ccc(O)c(OC)c2)NC(=O)[C@H](CC(C)C)NC(=O)[C@@H](Cc2ccccc2)NC(=O)[C@H](CCNCc2ccc(O)c(OC)c2)NC1=O)[C@@H](C)O (stereo partly drawn)	724 µg/mL (≈ 418 µM)	12 µg/mL (≈ 6.92 µM)
CCC(C)CCCCC(=O)N[C@@H](CC/N=C/c1ccc(N(C)C)cc1)C(=O)N[C@H](C(=O)N[C@@H](CCN)C(=O)N[C@H]1CCNC(=O)[C@H]([C@@H](C)O)NC(=O)[C@H](CC/N=C/c2ccc(N(C)C)cc2)NC(=O)[C@H](CC/N=C/c2ccc(N(C)C)cc2)NC(=O)[C@H](CC(C)C)NC(=O)[C@@H](CC(C)C)NC(=O)[C@H](CC/N=C/c2ccc(N(C)C)cc2)NC1=O)[C@@H](C)O (stereo partly drawn)	12 µg/mL (≈ 7.08 µM)	3.1 µg/mL (≈ 1.83 µM)
CCC(C)CCCCC(=O)N[C@@H](CC/N=C/c1ccc(O)c(OC)c1)C(=O)N[C@@H](C(=O)N[C@@H](CCN)C(=O)N[C@H]1CCNC(=O)[C@@H]([C@@H](C)O)NC(=O)[C@H](CC/N=C/c2ccc(O)c(OC)c2)NC(=O)[C@H](CC/N=C/c2ccc(O)c(OC)c2)NC(=O)[C@H](CC(C)C)NC(=O)[C@@H](CC(C)C)NC(=O)[C@H](CC/N=C/c2ccc(O)c(OC)c2)NC1=O)[C@@H](C)O (stereo partly drawn)	5.5 µg/mL (≈ 3.22 µM)	2.8 µg/mL (≈ 1.64 µM)
CCC(C)CCCCC(=O)N[C@@H](CCNCc1ccc(C(C)C)cc1)C(=O)N[C@@H](C(=O)N[C@@H](CCN)C(=O)N[C@H]1CCNC(=O)[C@@H]([C@@H](C)O)NC(=O)[C@H](CCNCc2ccc(C(C)C)cc2)NC(=O)[C@H](CCNCc2ccc(C(C)C)cc2)NC(=O)[C@H](CC(C)C)NC(=O)[C@@H](Cc2ccccc2)NC(=O)[C@H](CCNCc2ccc(C(C)C)cc2)NC1=O)[C@@H](C)O (stereo partly drawn)	12 µg/mL (≈ 6.93 µM)	26 µg/mL (≈ 15 µM)
CCC(C)CCCCC(=O)N[C@@H](CCNCc1ccccc1)C(=O)N[C@H](C(=O)N[C@@H](CCN)C(=O)N[C@H]1CCNC(=O)[C@H]([C@@H](C)O)NC(=O)[C@H](CCNCc2ccccc2)NC(=O)[C@H](CCNCc2ccccc2)NC(=O)[C@H](CC(C)C)NC(=O)[C@@H](CC(C)C)NC(=O)[C@H](CCNCc2ccccc2)NC1=O)[C@@H](C)O (stereo partly drawn)	5 µg/mL (≈ 3.27 µM)	1.3 µg/mL (≈ 0.85 µM)
CCC(C)CCCCC(=O)N[C@@H](CC/N=C/c1ccc(N(C)C)cc1)C(=O)N[C@@H](C(=O)N[C@@H](CC/N=C/c1ccc(N(C)C)cc1)C(=O)N[C@H]1CCNC(=O)[C@@H]([C@@H](C)O)NC(=O)[C@H](CC/N=C/c2ccc(N(C)C)cc2)NC(=O)[C@H](CC/N=C/c2ccc(N(C)C)cc2)NC(=O)[C@H](CC(C)C)NC(=O)[C@@H](Cc2ccccc2)NC(=O)[C@H](CC/N=C\c2ccc(N(C)C)cc2)NC1=O)[C@@H](C)O (stereo partly drawn)	12 µg/mL (≈ 6.45 µM)	3.1 µg/mL (≈ 1.67 µM)
CCC(C)CCCCC(=O)N[C@@H](CCNCc1ccc(O)cc1)C(=O)N[C@H](C(=O)N[C@@H](CCN)C(=O)N[C@H]1CCNC(=O)[C@H]([C@@H](C)O)NC(=O)[C@H](CCNCc2ccc(O)cc2)NC(=O)[C@H](CCNCc2ccc(O)cc2)NC(=O)[C@H](CC(C)C)NC(=O)[C@@H](Cc2ccccc2)NC(=O)[C@H](CCNCc2ccc(O)cc2)NC1=O)[C@@H](C)O (stereo partly drawn)	6.2 µg/mL (≈ 3.81 µM)	1.6 µg/mL (≈ 0.983 µM)
CCC(C)CCCCC(=O)N[C@@H](CCNCc1ccccc1)C(=O)N[C@H](C(=O)N[C@@H](CCN)C(=O)N[C@H]1CCNC(=O)[C@H]([C@@H](C)O)NC(=O)[C@H](CCNCc2ccccc2)NC(=O)[C@H](CCNCc2ccccc2)NC(=O)[C@H](CC(C)C)NC(=O)[C@@H](Cc2ccccc2)NC(=O)[C@H](CCNCc2ccccc2)NC1=O)[C@@H](C)O (stereo partly drawn)	5 µg/mL (≈ 3.2 µM)	1.3 µg/mL (≈ 0.831 µM)
CCC(C)CCCCC(=O)N[C@@H](CC/N=C/c1ccccc1)C(=O)N[C@H](C(=O)N[C@@H](CCN)C(=O)N[C@H]1CCNC(=O)[C@H]([C@@H](C)O)NC(=O)[C@H](CC/N=C/c2ccccc2)NC(=O)[C@H](CC/N=C/c2ccccc2)NC(=O)[C@H](CC(C)C)NC(=O)[C@@H](CC(C)C)NC(=O)[C@H](CC/N=C/c2ccccc2)NC1=O)[C@@H](C)O (stereo partly drawn)	0.08 µg/mL (≈ 0.0526 µM)	26 µg/mL (≈ 17.1 µM)
